Legend:
A549 cells [1] = experiment: CellTiter-Glo viability and CalcuSyn synergy, PRMT5 inhibitor + palbociclib, 6 days; settings: for Combination Fa: 8640 min
A549 cells [2] = experiment: CellTiter-Glo viability and CalcuSyn synergy, PRMT5 inhibitor + KRAS G12X inhibitor, 6 days; settings: for Combination Fa: 8640 min
UM-UC-3 cells = experiment: CellTiter-Glo viability and CalcuSyn synergy, PRMT5 inhibitor + sotorasib, 6 days; assay type: cell-based; settings: for Combination Fa: 8640 min
Description: (§1) Raw luminescent values were converted to fraction affected (Fa) with the following equation: […]
Synergy analysis was performed using the CalcuSyn software to determine CI scores based on the drug concentrations used and corresponding Fa values. Results are shown in Table 6 below. *CI Values (Calcusyn): Strong Synergism: 0.1-0.3; Synergism: 0.3-0.7; Moderate Synergism: 0.7-0.85; Slight Synergism: 0.85-0.9; Nearly Additive: 0.9-1.1.

MIAPACA2T2 cells = experiment: CellTiter-Glo viability and CalcuSyn synergy, PRMT5 inhibitor + KIF18A, 6 days; settings: for Combination Fa: 8640 min
LU99 NSCLC xenografts = experiment: Tumor growth inhibition, LU99 NSCLC xenografts (Example 12); assay type: in vivo, Female NOD/SCID mice; settings: Compound B 100 mg/kg orally once daily + sotorasib 100 mg/kg; versus either single agent alone
Source text: 10 Female NOD/SCID mice were implanted with LU99 NSCLC tumor xenografts. Mean tumor volumes for each grouping were between 100-200 mm^3. […] Plotted data represents the TGI (tumor growth inhibition), n=10 for each group.

SUM149PT cells = experiment: CellTiter-Glo viability and CalcuSyn synergy, PRMT5 inhibitor + olaparib, 6 days; assay type: cell-based; settings: for Combination Fa: 8640 min
Description: as §1
Synergy analysis was performed using the CalcuSyn software to determine CI scores based on the drug concentrations used and corresponding Fa values. Results are shown in Tables 1-3 below. *CI Values (Calcusyn): Strong Synergism: 0.1-0.3; Synergism: 0.3-0.7; Moderate Synergism: 0.7-0.85; Slight Synergism: 0.85-0.9; Nearly Additive: 0.9-1.1.

[3] = Compound B 0.1535 μM + palbociclib 0.298023 μM
[4] = Compound B 0.1535 μM + palbociclib 0.476837 μM
[5] = Compound B 0.1535 μM + palbociclib 0.762939 μM
[6] = Compound B 0.1535 μM + palbociclib 1.2207 μM
[7] = Compound B 0.1535 μM + palbociclib 1.95313 μM
[8] = Compound B 0.1535 μM + palbociclib 3.125 μM
[9] = Compound B 0.1535 μM + palbociclib 5 μM
[10] = Compound B 0.0808 μM + KRAS G12X inhibitor 0.010628 μM
[11] = Compound B 0.0808 μM + KRAS G12X inhibitor 0.020193 μM
[12] = Compound B 0.0808 μM + KRAS G12X inhibitor 0.038367 μM
[13] = Compound B 0.0808 μM + KRAS G12X inhibitor 0.072897 μM
[14] = Compound B 0.0808 μM + KRAS G12X inhibitor 0.138504 μM
[15] = Compound B 0.0808 μM + KRAS G12X inhibitor 0.263158 μM
[16] = Compound B 0.0808 μM + KRAS G12X inhibitor 0.5 μM
[17] = Compound B 0.2916 μM + sotorasib 0.00298 μM
[18] = Compound B 0.2916 μM + sotorasib 0.004768 μM
[19] = Compound B 0.2916 μM + sotorasib 0.007629 μM
[20] = Compound B 0.2916 μM + sotorasib 0.012207 μM
[21] = Compound B 0.2916 μM + sotorasib 0.019531 μM
[22] = Compound B 0.2916 μM + sotorasib 0.03125 μM
[23] = Compound B 0.2302 μM + KIF18A 0.021256 μM
[24] = Compound B 0.2302 μM + KIF18A 0.040386 μM
[25] = Compound B 0.2302 μM + KIF18A 0.076734 μM
[26] = Compound B 0.2302 μM + KIF18A 0.145794 μM
[27] = Compound B 0.2302 μM + KIF18A 0.277008 μM
[28] = Compound B 0.2302 μM + KIF18A 0.526316 μM
[29] = Compound B 0.2302 μM + KIF18A 1 μM
[30] = Compound B 0.277008 μM + olaparib 0.103573 μM
[31] = Compound B 0.277008 μM + olaparib 0.176074 μM
[32] = Compound B 0.277008 μM + olaparib 0.299326 μM
[33] = Compound B 0.277008 μM + olaparib 0.508854 μM
[34] = Compound B 0.277008 μM + olaparib 0.865052 μM
[35] = Compound B 0.277008 μM + olaparib 1.47059 μM
[36] = Compound B 0.277008 μM + olaparib 2.5 μM

Cc1cc2cc(C(=O)N(Cc3ccc(C(F)(F)F)cn3)[C@@H](C)c3ncccn3)ccc2nc1N [Compound B]
Computed CI value (A549 cells [1]; [3]): 0.293 | Combination Fa (A549 cells [1]; [3]): 0.6994 | Computed CI value (A549 cells [1]; [4]): 0.341 | Combination Fa (A549 cells [1]; [4]): 0.7105 | Computed CI value (A549 cells [1]; [5]): 0.497 | Combination Fa (A549 cells [1]; [5]): 0.7007 | Computed CI value (A549 cells [1]; [6]): 0.421 | Combination Fa (A549 cells [1]; [6]): 0.7619 | Computed CI value (A549 cells [1]; [7]): 0.626 | Combination Fa (A549 cells [1]; [7]): 0.761 | Computed CI value (A549 cells [1]; [8]): 0.685 | Combination Fa (A549 cells [1]; [8]): 0.7958 | Computed CI value (A549 cells [1]; [9]): 0.377 | Combination Fa (A549 cells [1]; [9]): 0.8818 | Computed CI value (A549 cells [2]; [10]): 0.38 | Combination Fa (A549 cells [2]; [10]): 0.5945 | Computed CI value (A549 cells [2]; [11]): 0.366 | Combination Fa (A549 cells [2]; [11]): 0.6255 | Computed CI value (A549 cells [2]; [12]): 0.247 | Combination Fa (A549 cells [2]; [12]): 0.7012 | Computed CI value (A549 cells [2]; [13]): 0.284 | Combination Fa (A549 cells [2]; [13]): 0.7187 | Computed CI value (A549 cells [2]; [14]): 0.27 | Combination Fa (A549 cells [2]; [14]): 0.7582 | Computed CI value (A549 cells [2]; [15]): 0.409 | Combination Fa (A549 cells [2]; [15]): 0.7615 | Computed CI value (A549 cells [2]; [16]): 0.503 | Combination Fa (A549 cells [2]; [16]): 0.7849 | Computed CI value (UM-UC-3 cells; [17]): 1.172 | Combination Fa (UM-UC-3 cells; [17]): 0.5393 | Computed CI value (UM-UC-3 cells; [18]): 1.028 | Combination Fa (UM-UC-3 cells; [18]): 0.6004 | Computed CI value (UM-UC-3 cells; [19]): 0.778 | Combination Fa (UM-UC-3 cells; [19]): 0.6836 | Computed CI value (UM-UC-3 cells; [20]): 0.685 | Combination Fa (UM-UC-3 cells; [20]): 0.7355 | Computed CI value (UM-UC-3 cells; [21]): 0.677 | Combination Fa (UM-UC-3 cells; [21]): 0.7685 | Computed CI value (UM-UC-3 cells; [22]): 0.584 | Combination Fa (UM-UC-3 cells; [22]): 0.8141 | Computed CI value (MIAPACA2T2 cells; [23]): 0.763 | Combination Fa (MIAPACA2T2 cells; [23]): 0.5368 | Computed CI value (MIAPACA2T2 cells; [24]): 0.591 | Combination Fa (MIAPACA2T2 cells; [24]): 0.6323 | Computed CI value (MIAPACA2T2 cells; [25]): 0.578 | Combination Fa (MIAPACA2T2 cells; [25]): 0.7018 | Computed CI value (MIAPACA2T2 cells; [26]): 0.881 | Combination Fa (MIAPACA2T2 cells; [26]): 0.7173 | Computed CI value (MIAPACA2T2 cells; [27]): 0.826 | Combination Fa (MIAPACA2T2 cells; [27]): 0.7944 | Computed CI value (MIAPACA2T2 cells; [28]): 1.158 | Combination Fa (MIAPACA2T2 cells; [28]): 0.8219 | Computed CI value (MIAPACA2T2 cells; [29]): 2.512 | Combination Fa (MIAPACA2T2 cells; [29]): 0.8073 | anti-tumor activity (LU99 NSCLC xenografts): significant anti-tumor activity versus either single agent alone | Computed CI value (SUM149PT cells; [30]): 0.618 | Combination Fa (SUM149PT cells; [30]): 0.747 | Computed CI value (SUM149PT cells; [31]): 0.579 | Combination Fa (SUM149PT cells; [31]): 0.769 | Computed CI value (SUM149PT cells; [32]): 0.777 | Combination Fa (SUM149PT cells; [32]): 0.745 | Computed CI value (SUM149PT cells; [33]): 0.582 | Combination Fa (SUM149PT cells; [33]): 0.813 | Computed CI value (SUM149PT cells; [34]): 0.565 | Combination Fa (SUM149PT cells; [34]): 0.849 | Computed CI value (SUM149PT cells; [35]): 0.543 | Combination Fa (SUM149PT cells; [35]): 0.888 | Computed CI value (SUM149PT cells; [36]): 0.504 | Combination Fa (SUM149PT cells; [36]): 0.925
